Where two headings read alike, the source gives them in different places.
Key:
Type in all cases: cell-based
HRV16 = HRV16 HeLa EC50 (cytopathic effect in H1-HeLa cells); details: read-out: HRV16 HeLa EC50
Protocol: H1-HeLa cells, cultured in complete DMEM medium containing 10% heat-inactivated FBS and 1% Penicillin/Streptomycin, were seeded in 96 well plates at 3000 cells/well one day prior to compound dosing and infection. The antiviral activity of each compound was measured in triplicate. Compounds were added directly to the cell cultures in serial 3-fold dilutions using the HP300 digital dispenser (Hewlett Packard, Palo Alto, CA) immediately prior to infection. The plates were transferred to BSL-2 containment and the appropriate dilution of virus stock, previously determined by titration and prepared in cell culture media, was added to test plates containing cells and serially diluted compounds. Each plate included 6 wells of infected untreated cells and 6 wells of uninfected cells that served as 0% and 100% virus inhibition control, respectively. Following the infection, test plates were incubated for 96 h in a tissue culture incubator set to 33° C./5% CO2. Following incubation, the H1-HeLa cells were removed from incubation and allowed to equilibrate to 25° C. Cell viability was determined by removing 100 μL of culture medium and adding 100 μL of Cell-Titer Glo viability reagent. The mixtures were incubated on a shaker for 10 minutes at 25° C., and the luminescence signal was quantified on an Envision luminescence plate reader.

RSV A2 = test: RSV NHBE EC50 (RSV A2 antiviral assay in NHBE cells); details: read-out: RSV NHBE EC50
Protocol: Normal human bronchial epithelial (NHBE) cells were purchased from Lonza (Walkersville, MD, Cat #CC-2540) and cultured in Bronchial Epithelial Growth Media (BEGM) (Lonza, Walkersville, MD, Cat #CC-3170). The cells were passaged 1-2 times per week to maintain <80% confluency. The NHBE cells were discarded after 6 passages in culture.
To conduct the RSV A2 antiviral assay, NHBE cells were plated in 96-well plates at a density of 7,500 cells per well in BEGM and allowed to attach overnight at 37° C. Following attachment, 100 μL of cell culture media was removed and 3-fold serially diluted compound was added using a Hewlett-Packard D300 Digital Dispenser. The final concentration of DMSO was normalized to 0.05%. Following compound addition, the NHBE cells were infected by the addition of 100 μL of RSV A2 at a titer of 1×10^4.5 tissue culture infectious doses/mL in BEGM and then incubated at 37° C. for 4 days. The NHBE cells were then allowed to equilibrate to 25° C. and cell viability was determined by removing 100 μL of culture medium and adding 100 μL of Cell-Titer Glo viability reagent. The mixtures were incubated for 10 minutes at 25° C., and the luminescence signal was quantified on an Envision luminescence plate reader.

RSV strain A2 = test: microbe, parasite or virus in culture; details: read-out: RSV HEp-2 EC50
Protocol: Antiviral activity against RSV is determined using an infectious cytopathic cell protection assay in HEp-2 cells. In this assay, compounds inhibiting viral infection and/or replication produce a cytoprotective effect against the virus-induced cell killing that can be quantified using a cell viability reagent. The techniques used here are novel adaptations of methods described in published literature (Chapman et al., Antimicrob Agents Chemother. 2007, 51(9):3346-53.).
HEp-2 cells are obtained from ATCC (Manassas, VI) and maintained in MEM media supplemented with 10% fetal bovine serum and penicillin/streptomycin. Cells are passaged twice a week and kept at subconfluent stage. Commercial stock of RSV strain A2 (Advanced Biotechnologies, Columbia, MD) is titered before compound testing to determine the appropriate dilution of the virus stock that generates desirable cytopathic effect in HEp-2 cells.
For antiviral tests, HEp-2 cells are grown in large cell culture flasks to near confluency but not fully so. The compounds to be tested are prediluted in DMSO in 384-well compound dilution plates, either in an 8 or 40 sample per plate standardized dose response format. 3-fold serial dilution increments of each test compound are prepared in the plates and test samples are transferred via acoustic transfer apparatus (Echo, Labcyte) at 100 nL per well into cell culture assay 384-well plates. Each compound dilution is transferred in single or quadruplicate samples into dry assay plates, which are stored until assay is ready to go. The positive and negative controls are laid out in opposite on ends of the plate in vertical blocks (1 column).
Subsequently, an infectious mixture is prepared using an appropriate dilution of virus stock previously determined by titration with cells at a density of 50,000/mL and 20 µL/well is added to test plates w/compounds via automation (uFlow, Biotek). Each plate includes negative and positive controls (16 replicates each) to create 0% and 100% virus inhibition standards, respectively. Following the infection with RSV, testing plates are incubated for 4 days in a 37° C. cell culture incubator. After the incubation, a cell viability reagent, Cell TiterGlo (Promega, Madison, WI) is added to the assay plates, which are incubated briefly, and a luminescent readout is measured (Envision, Perkin Elmer) in all the assay plates. The RSV-induced cytopathic effect, percentage inhibition, is determined from the levels of remaining cell viability. […] Various potent anti-RSV tool compounds are used as positive controls for antiviral activity.

[1] = Table 3, NHBE cells, RSV A2, 4 days
[2] = Table 3, HEp-2 cells, RSV A2, 4 days
[3] = HeLa, Table 5 comparative activity, 2',3'-OH vs -OC(O)iPr
[4] = human respiratory syncytial virus, NHBE, Table 5 comparative activity, 2',3'-OH vs -OC(O)iPr
[5] = human respiratory syncytial virus, HEp-2, Table 5 comparative activity, 2',3'-OH vs -OC(O)iPr
[6] = 96 h, Table 3, H1-HeLa cells, 96 h
[7] = human respiratory syncytial virus, NHBE, 96 h, Table 3, NHBE cells, RSV A2, 4 days
[8] = human respiratory syncytial virus, HEp-2, 96 h, Table 3, HEp-2 cells, RSV A2, 4 days

Compound | EC50 (HRV16; [6]) [nM] | EC50 (RSV A2; [7]) [nM] | EC50 (RSV strain A2; [8]) [nM] | also measured
CC(C)C(=O)O[C@H]1[C@H](c2ccc3c(N)ncnn23)O[C@](C#N)(COP(=O)(N[C@@H](C)C(=O)O[C@H]2CCOC2)Oc2ccccc2)[C@H]1OC(=O)C(C)C (single isomer, unassigned) [Example 241] |  |  |  | EC50 (HRV16; Table 3, H1-HeLa cells, 96 h): 131 nM; EC50 (RSV A2; [1]): 13 nM; EC50 (RSV strain A2; [2]): 25 nM
C[C@H](NP(=O)(OC[C@@]1(C#N)O[C@@H](c2ccc3c(N)ncnn23)[C@H](O)[C@@H]1O)Oc1ccccc1)C(=O)O[C@H]1CCN(C)C1 (stereo partly drawn) [Example 15, (S)-1-methylpyrrolidin-3-yl ((((2R,3S,4R,5S)-5-(4-aminopyrrolo[2,1-f][1,2,4]triazin-7-yl)-2-cyano-3,4-dihydroxytetrahydrofuran-2-yl)methoxy)(phenoxy)phosphoryl)-L-alaninate] |  |  |  | EC50 (HRV16; [3]): 11400 nM; EC50 (RSV A2; [4]): 3260 nM; EC50 (RSV strain A2; [5]): 4330 nM
COC(=O)[C@H](C)NP(=O)(OC[C@@]1(C#N)O[C@@H](c2ccc3c(N)ncnn23)[C@H](OC(=O)C(C)C)[C@@H]1OC(=O)C(C)C)Oc1ccc(C[C@H](N)C(=O)OC)cc1 (stereo partly drawn) [Example 235, (2R,3S,4S,5S)-2-((((4-((S)-2-amino-3-methoxy-3-oxopropyl)phenoxy)(((S)-1-methoxy-1-oxopropan-2-yl)amino)phosphoryl)oxy)methyl)-5-(4-aminopyrrolo[2,1-f][1,2,4]triazin-7-yl)-2-cyanotetrahydrofuran-3,4-diyl bis(2-methylpropanoate)] | 2260 | 113 | 742 | 
CC(C)C(=O)O[C@H]1[C@H](c2ccc3c(N)ncnn23)O[C@](C#N)(COP(=O)(N[C@@H](C)C(=O)O[C@H]2CCOC2)Oc2ccccc2)[C@H]1OC(=O)C(C)C (single isomer, unassigned) [Example 240] | 125 | 24 | 20 | 
C[C@H](NP(=O)(OC[C@@]1(C#N)O[C@@H](c2ccc3c(N)ncnn23)[C@H](O)[C@@H]1O)Oc1ccccc1)C(=O)OC1COC1 (stereo partly drawn) [Example 44, oxetan-3-yl ((((2R,3S,4R,5S)-5-(4-aminopyrrolo[2,1-f][1,2,4]triazin-7-yl)-2-cyano-3,4-dihydroxytetrahydrofuran-2-yl)methoxy)(phenoxy)phosphoryl)-L-alaninate] |  |  |  | EC50 (HRV16; [3]): 4260 nM; EC50 (RSV A2; [4]): 1800 nM; EC50 (RSV strain A2; [5]): 997 nM
CC(C)C(=O)O[C@H]1[C@H](c2ccc3c(N)ncnn23)O[C@](C#N)(COP(=O)(N[C@@H](C)C(=O)OCCCN2CCOCC2)Oc2ccccc2)[C@H]1OC(=O)C(C)C (stereo partly drawn) [Example 237, (2R,3S,4S,5S)-5-(4-aminopyrrolo[2,1-f][1,2,4]triazin-7-yl)-2-cyano-2-((((((S)-1-(3-morpholinopropoxy)-1-oxopropan-2-yl)amino)(phenoxy)phosphoryl)oxy)methyl) tetrahydrofuran-3,4-diyl bis(2-methylpropanoate)] | 478 | 43 | 106 | 
CC(C)C(=O)O[C@H]1[C@H](c2ccc3c(N)ncnn23)O[C@](C#N)(COP(=O)(N[C@@H](C)C(=O)OCc2ccccc2)Oc2ccccc2)[C@H]1OC(=O)C(C)C (stereo partly drawn) [Example 236, (2R,3S,4S,5S)-5-(4-aminopyrrolo[2,1-f][1,2,4]triazin-7-yl)-2-((((((S)-1-(benzyloxy)-1-oxopropan-2-yl)amino)(phenoxy)phosphoryl)oxy)methyl)-2-cyanotetrahydrofuran-3,4-diyl bis(2-methylpropanoate)] | 136 | 24 | 49 | 
CC(C)C(=O)O[C@H]1[C@H](c2ccc3c(N)ncnn23)O[C@](C#N)(COP(=O)(N[C@@H](C)C(=O)O[C@@H]2CCN(C)C2)Oc2ccccc2)[C@H]1OC(=O)C(C)C (stereo partly drawn) [Example 232, (2R,3S,4S,5S)-5-(4-aminopyrrolo[2,1-f][1,2,4]triazin-7-yl)-2-cyano-2-((((((S)-1-(((R)-1-methylpyrrolidin-3-yl)oxy)-1-oxopropan-2-yl)amino)(phenoxy)phosphoryl)oxy)methyl)tetrahydrofuran-3,4-diyl bis(2-methylpropanoate)] | 880 | 53 | 95 | 
CC(C)C(=O)OC1C(c2ccc3c(N)ncnn23)OC(C#N)(COP(=O)(NC(C)C(=O)OC2CCN(C)C2)Oc2ccccc2)C1OC(=O)C(C)C (single isomer, unassigned) [Example 229] |  |  |  | EC50 (HRV16; Table 3, H1-HeLa cells, 96 h): 676 nM; EC50 (RSV A2; [1]): 23 nM; EC50 (RSV strain A2; [2]): 16 nM
COCCCOC(=O)[C@H](C)NP(=O)(OC[C@@]1(C#N)O[C@@H](c2ccc3c(N)ncnn23)[C@H](OC(=O)C(C)C)[C@@H]1OC(=O)C(C)C)Oc1ccccc1 (stereo partly drawn) [Example 222, (2R,3S,4S,5S)-5-(4-Aminopyrrolo[2,1-f][1,2,4]triazin-7-yl)-2-cyano-2-((((((S)-1-(3-methoxypropoxy)-1-oxopropan-2-yl)amino)(phenoxy)phosphoryl)oxy)methyl) tetrahydrofuran-3,4-diyl bis(2-methylpropanoate)] | 146 | 25 | 27 | 

From patent US12264173B2 (GILEAD SCIENCES, INC., priority 2020, dated 2025)
